Data on 7 compounds can be found in US8871735B2, “Methods and compositions for providing cardiac protection” (University of Medicine and Dentistry of New Jersey, priority 2008, dated 2014).

The subject of one series is H9C2 cells. As to the kind of experiment: cAMP accumulation in H9C2 cells. The class given is cell-based. The note with it: 5 μM ISO, 3 minutes, 10 μM drug. The source says: […] Fludarabine ((+)-2-Fluoro-9-(5-O-phosphono-β-D-arabinofuranosyl)-9H-purin-6-amine) and Cladribine (2-chloro-2′-deoxyadenosine) are anti-cancer drugs, Adefovir (Bis(2,2-dimethylpropanoyloxymethyl)[2-(6-amino-9H-purin-9-yl)ethoxymethyl]phosphonate) and Zidovudine are anti-HIV drugs. Zidovudine-TP is a metabolite of zidovudine which inhibits virus replication. TP; triphosphate. 3-Deazaadenosine, Formycin A (7-Amino-3-(β-D-ribofuranosyl)-1H-pyrazolo[4,3-d]pyrimidine), 2-Far (2-Fluoroadenosine), formycin A ((2S,3R,4S,5R)-2-(7-amino-2H-pyrazolo[5,4-e]pyramidin-3-yl-5-(hydroxymeth-yl)oxolane-3,4-diol), 2-FD (2-Fluoro-2′-deoxyadenosine) and 2′5′ ddAdo (2′5′-dideoxyadenosine) are experimental drugs.
(§1) Mice were anesthetized with 2.5% tribromoethanol (0.010 to 0.015 mL per gram of body weight) injected intraperitoneally, and echocardiography was performed with ultrasonography (ACUSON Sequoia C256, Siemens Medical Solutions, Malvern, Pa.). For acute injection of isoproterenol, forskolin and milrinon, a PE-10 catheter was inserted into the right jugular vein, and drugs were injected at the rate of 1 μl/s. cAMP accumulation assay in H9C2 cells, a cardiac myoblast cell line, was examined as previously described.

The subject of another series is AC. Kind of series: cAMP production in membrane preparations from mouse heart. In kind it is biochemical. To be noted: 50 μM forskolin, 10 μM drug. The protocol:
Such membrane permeability was examined using whole cell, which is addressed in FIG. 11b). cAMP production was measured with 50 μM forskolin in the presence or absence of 10 μM of the indicated drugs. n=2. (b) cAMP accumulation is shown in H9C2 cells. […] Ara-Ade (Adenine 9-β-D-arabinofuranoside) is an anti-herpes simplex drug. Fludarabine ((+)-2-Fluoro-9-(5-O-phosphono-β-D-arabinofuranosyl)-9H-purin-6-amine) and Cladribine (2-chloro-2′-deoxyadenosine) are anti-cancer drugs, Adefovir (Bis(2,2-dimethylpropanoyloxymethyl)[2-(6-amino-9H-purin-9-yl)ethoxymethyl]phosphonate) and Zidovudine are anti-HIV drugs. Zidovudine-TP is a metabolite of zidovudine which inhibits virus replication. TP; triphosphate. 3-Deazaadenosine, Formycin A (7-Amino-3-(β-D-ribofuranosyl)-1H-pyrazolo[4,3-d]pyrimidine), 2-Far (2-Fluoroadenosine), formycin A ((2S,3R,4S,5R)-2-(7-amino-2H-pyrazolo[5,4-e]pyramidin-3-yl-5-(hydroxymeth-yl)oxolane-3,4-diol), 2-FD (2-Fluoro-2′-deoxyadenosine) and 2′5′ ddAdo (2′5′-dideoxyadenosine) are experimental drugs.
Various compounds with adenine-like backbone structure were screened because this structure is essential for both AC inhibition and plasma membrane permeability. Drug effects on AC activity was examined by using membrane preparations from mouse heart and striatum, in which AC5 provides 20% and 80% of total AC activity, respectively. […]

Series [1] has as its system C57Bl/6 mice motor function. As to the kind of experiment: Rotarod performance test and pole test. The note with it: Ara-Ade by mini-osmotic pump; MPTP 30 mg/kg i.p. daily for 5 days. In kind it is in vivo, mouse. The protocol:
In C57Bl/6 mice, Ara-Ade was chronically infused with an osmotic mini-pump at the indicated doses for 5 days. a) Each mouse was placed on a rod subjected to evaluate Rotarod performance. Mice were left for 1 min on the rod for habituation. The rod rotated gradually increasing from 4 to 40 rpm over the course of 5 min, and the time that mice could stay without failing was recorded. Five trials were conducted for each individual 10-25 min apart. As a positive control, 1-methyl 4-phenyl 1,2,3,6-tetrahydropyridine (MPTP) was intraperitoneally injected for the indicated dose for 5 days. *, p<0.01 relative to vehicle. #, p<0.05 relative to vehicle. n=6-7. b) To evaluate bradykinesia, a pole test was performed. Mice were placed head upward on the top of a rough surfaced pole that was wrapped with gauze to prevent slipping. The time until the mouse turned completely downward (open bars, TTURN) and the time until it climbed down to the floor (closed bars, TLA) were measured.
Four days after the implantation, Rotarod performance test and pole test were examined as previously described. For MPTP injection (1-methyl 4-phenyl 1,2,3,6-tetrahydropyridine), mice were injected intraperitoneally (i.p.) with 0.1 mL of PBS or MPTP dissolved in PBS at 24-hour intervals for 5 days. The daily dose of MPTP was 30 mg/kg. […]

The test system of series [2] is AC5. To be noted: cited from earlier work.
Series [3] deals with cardiac myocytes. To be noted: cited from earlier work.
The target in another series is T1, AC3 (Rattus norvegicus, UniProt P21932).
T1 construct: made in house
Kind of series: AC inhibition, recombinant AC proteins: AC3. The class given is biochemical.

The subject of series [4] is cardiac myocytes. Kind of series: ISO-stimulated cAMP accumulation in cultured cardiac myocytes. In kind it is cell-based, mouse. To be noted: 10 μM compound.
Series [5] addresses AC2 (UniProt P26769). Kind of series: AC inhibition, recombinant AC proteins: AC2. In kind it is biochemical.
The subject of series [6] is AC5. As to the kind of experiment: AC inhibition, recombinant AC proteins: AC5. In kind it is biochemical.
The target in series [7] is T2, AC5 (UniProt P30803).
T2 construct: IC50 AC5; other: recombinant AC proteins; other: THFA: in the presence of Gs-α/GTPαS/forskolin
As to the kind of experiment: AC inhibition, recombinant AC proteins: AC5. The class given is biochemical. The note with it: recombinant AC proteins; read-out: IC50 AC5.

Series [8] concerns cardiac myocytes. As to the kind of experiment: ISO-induced apoptosis in cultured cardiac myocytes (DNA fragmentation ELISA). The note with it: 100 μM ISO, 48 h. The class given is cell-based.
Method: Cultured cardiac myocytes were incubated with 100 μM ISO in the presence or absence of AC5 inhibitors at the indicated concentrations for 48 h.
The test system of series [9] is cardiac myocytes. Kind of series: ISO-induced cell contraction in cultured cardiac myocytes. In kind it is cell-based. To be noted: 10 μM.
Series [10] has as its system AC2. To be noted: previously noted; cited from earlier work.
Series [11] relates to C57Bl/6 mice, chronic ISO infusion. As to the kind of experiment: Chronic ISO infusion heart failure model. The note with it: for ISO-induced decrease in LVEF (and FS): ISO 60 mg/kg/d 7 days, Ara-Ade 20 and 100 mg/kg/day, 2′5′ ddAdo 20 mg/kg/day. In kind it is in vivo, mouse.
Source text: (§2) ISO with or without AC5 inhibitors were chronically infused with osmotic mini-pump implanted subcutaneously at indicated doses for 1 week in c57Bl/6 mice. Mice were then subjected to echocardiography (a) and the hearts were removed and subjected to pathological examinations such as myocardial apoptosis (b) and fibrosis (c). n=4-8.
(§3) In C57Bl/6 mice, ISO with or without AC5 inhibitors or metoprolol were chronically infused with an osmotic mini-pump at the indicated doses for 1 week. Mice were then subjected to echocardiography (a) and heart tissue were subjected to a myocardial apoptosis assay (b). *, p<0.01 vs vehicle. #, p<0.05 vs vehicle. .dagger., p<0.01 vs ISO. .dagger-dbl., p<0.05 vs ISO. n=4-15. […] Comparisons between multiple groups were made using ANOVA with post-hoc tests.
Tenofovir diphosphate (PMPA-PP), zidovudine monophosphate (MP), zidovudine diphosphate (PP), zidovudine triphosphate (TP), famciclovir penciclovir and valaciclovir were purchased from Moravek. Formycin A (FMA) and Formycin B (FMB) were purchased from Berry and Associates. All other reagents were from Sigma unless specified. Long-term infusion of isoproterenol (Sigma, St. Louis, Mo.) was performed for 7 days at a dose of 60 mg/kg/d with or without AC5 inhibitors by using a miniosmotic pump (ALZET model 2001, DURECT Corp, Cupertino, Calif.). Control mice received vehicle in pumps. Pumps were removed 24 hours before biochemical and physiological studies. Experiments were performed in 3- to 5-month-old male C57Bl/6, and in AC5Tg transgenic mice. This study was approved by the Animal Care and Use Committee at New Jersey Medical School.
as §1

The next series has as its system mice. Kind of series: Basal cardiac function (echocardiography) under chronic drug infusion alone. In kind it is in vivo, mouse. The note with it: chronic infusion of drug alone (3 days to 1 week).
Source text: as §2, §3
Mice were anesthetized with 2.5% tribromoethanol (0.010 to 0.015 mL per gram of body weight) injected intraperitoneally, and echocardiography was performed with ultrasonography (ACUSON Sequoia C256, Siemens Medical Solutions, Malvern, Pa.). For acute injection of isoproterenol, forskolin and milrinon, a PE-10 catheter was inserted into the right jugular vein, and drugs were injected at the rate of 1 μl/s. cAMP accumulation assay in H9C2 cells, a cardiac myoblast cell line, was examined as previously described. […]

Series [12] has as its system isolated perfused rat hearts. To be noted: cited from earlier work.
A further series relates to patients. To be noted: BHAT; cited from earlier work.

T1 sequence (P21932 whole entry): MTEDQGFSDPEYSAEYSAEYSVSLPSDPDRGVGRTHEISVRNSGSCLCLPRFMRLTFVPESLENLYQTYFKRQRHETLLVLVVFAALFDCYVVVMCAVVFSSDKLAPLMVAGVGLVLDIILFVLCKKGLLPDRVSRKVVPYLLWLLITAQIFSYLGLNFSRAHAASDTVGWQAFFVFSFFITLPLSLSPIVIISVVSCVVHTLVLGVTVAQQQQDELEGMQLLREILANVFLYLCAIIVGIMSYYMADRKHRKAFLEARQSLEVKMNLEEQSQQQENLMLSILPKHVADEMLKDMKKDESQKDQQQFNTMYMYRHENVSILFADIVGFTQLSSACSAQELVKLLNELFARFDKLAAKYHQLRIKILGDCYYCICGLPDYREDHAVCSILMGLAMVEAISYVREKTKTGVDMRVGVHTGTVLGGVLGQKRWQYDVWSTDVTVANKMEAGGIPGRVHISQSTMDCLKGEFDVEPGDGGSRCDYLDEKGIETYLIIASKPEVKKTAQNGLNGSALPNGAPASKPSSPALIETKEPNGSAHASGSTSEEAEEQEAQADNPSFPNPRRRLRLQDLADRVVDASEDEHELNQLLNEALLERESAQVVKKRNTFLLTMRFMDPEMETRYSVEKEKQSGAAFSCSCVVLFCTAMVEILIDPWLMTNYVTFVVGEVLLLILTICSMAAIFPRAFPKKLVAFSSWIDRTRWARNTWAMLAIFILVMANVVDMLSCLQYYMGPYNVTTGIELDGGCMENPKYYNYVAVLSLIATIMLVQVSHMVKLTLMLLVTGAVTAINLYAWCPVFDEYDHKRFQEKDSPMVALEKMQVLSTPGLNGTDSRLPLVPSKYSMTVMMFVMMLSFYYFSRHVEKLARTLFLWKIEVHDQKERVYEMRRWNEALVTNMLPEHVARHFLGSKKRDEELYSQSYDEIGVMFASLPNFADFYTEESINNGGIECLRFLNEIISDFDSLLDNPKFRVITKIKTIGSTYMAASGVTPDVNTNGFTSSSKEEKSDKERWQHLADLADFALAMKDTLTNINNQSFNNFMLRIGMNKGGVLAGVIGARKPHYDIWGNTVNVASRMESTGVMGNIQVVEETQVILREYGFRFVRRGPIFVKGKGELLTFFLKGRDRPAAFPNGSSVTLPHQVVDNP

`Nc1nccc2c1ncn2[C@@H]1O[C@H](CO)[C@@H](O)[C@H]1O` [3-deazaadenosine, 3-Deazaadenosine]: the “inhibition of cAMP accumulation in H9C2 cells” value in the series on H9C2 cells is “little inhibition”. In addition, the “ratio of inhibition between the heart membrane and the striatum membrane” value in the series with AC is on record as “less than one”.

In the case of `CN1CC=C(c2ccccc2)CC1` [MPTP, 1-methyl 4-phenyl 1,2,3,6-tetrahydropyridine], the “Rotarod and pole test performance” value in series [1] is on record as “significantly impaired”.

On to `Nc1ncc2c(n1)CC(c1ccco1)CC2=O` (stereo not drawn) [NKY80, 2-amino-7-(2-furanyl)-7,8-dihydro-5(6H)-quinazoline], for which the “inhibition of purified AC5 protein in vitro” value in the series with AC5 [2] is “moderate inhibition”. In the series on cardiac myocytes [3], the “inhibition of cAMP accumulation in cultured cardiac myocytes” value is on record as “did not inhibit cAMP accumulation”.

With `Nc1ncnc2c1ncn2C1CCC(C(=O)NO)C1` (stereo not drawn) [PMC-6], the 50% inhibitory concentration (IC50) at AC3 worked out at 11.1 µM; at AC2 [5], 65.3 µM; on AC5 [7] it was 0.32 µM. Also, the “decrease in ISO-induced cAMP production / accumulation in cultured cardiac myocytes” value in the series on cardiac myocytes [4] was found to be 50%. Also, the “Selectivity ratio for AC5, AC5/AC2” value in the series on AC5 [6] (ratio of IC50 for AC5 to that for AC2) came out at 0.0049. In addition, in the series on AC5 [6] (ratio of IC50 for AC5 to that for AC3), the “Selectivity ratio for AC5, AC5/AC3” value is 0.029. Also, in the series on cardiac myocytes [8], the “ISO-induced apoptosis in cultured cardiac myocytes” value is listed as “abolished”. Besides, the “inhibition of ISO-induced cell contraction” value in the series with cardiac myocytes [9] was “did not inhibit”.

Regarding `Nc1ncnc2c1ncn2C1CCCO1` (stereo not drawn) [THFA, 9-(tetrahydro-2-furyl)adenine], the “selectivity ratio between AC6 and AC2” value with AC2 [10] is listed as 1.8. The “selectivity ratio between AC5 and AC2” value with AC5 [6] is reported as 130.

Take `COCCc1ccc(OCC(O)CNC(C)C)cc1` (stereo not drawn) [metoprolol]: the “ISO-induced decrease in LVEF (and FS)” value in [11] is recorded as “attenuated ISO-induced cardiac dysfunction”. In addition, the “ISO-induced decrease in LVEF (and FS)” value in [11] (listed as Metoprolol) is listed as “rescued ISO-induced LVEF decrease”. Further, in series [11] (chronic ISO infusion), the “HR decreased by chronic ISO” value is recorded as “rescue decreased HR”; the “ISO-induced myocardial apoptosis in vivo” value is on record as “to a lesser degree than Ara-Ade”; the “ISO-induced wall thickening (DESP, DPW)” value is recorded as “did not show significant increase”. For the same compound, the “basal LVEF” value in the series on mice is reported as “decreased”.

As to `CC(C)NCC(O)COc1cccc2ccccc12` (stereo not drawn) [propranolol], the “arrhythmia in low flow perfusion / NE model” value in series [12] was “effectively reduced arrhythmia”. For the same compound, in the series with patients, the “decrease of sudden cardiac death, patients with a history of HF” value is 47% and the “decrease of sudden cardiac death, patients with a history of MI” value was 28%.
